Reference: patent publication US6444696B1, “Pyrazole derivatives P38 MAP kinase inhibitors” (Syntex (U.S.A.) LLC, priority 1998, dated 2002)
Counter-ions that a name gives are not always drawn.

SMILES | melting point [°C]
CC(C)NC(=O)Oc1cccc(C(=O)c2cnn(-c3ccc(F)cc3)c2N)c1 | 225.2 to 230.1
CCNC(=O)Oc1cccc(C(=O)c2cnn(-c3ccc(F)cc3)c2N)c1 | 201.2 to 202.8
CN1CCN(CCCc2cccc(C(=O)c3cnn(-c4ccc(F)cc4)c3N)c2)CC1 (as salt: HCl) [compound 30, 5-amino-1-(4-fluorophenyl)-4-{3-[3-(4-methylpiperazin-1-yl)propyl]benzoyl}pyrazole] | 254.5 to 254.9
Nc1c(C(=O)c2cccc(CCCN3CCCCC3)c2)cnn1-c1ccc(F)cc1 (as salt: HCl) [compound 32, 5-amino-1-(4-fluorophenyl)-4-[3-(3-piperidin-1-ylpropyl)benzoyl]pyrazole] | 227.1 to 277.7
Cc1ccc(-n2ncc(C(=O)c3cccc(-c4cccnc4)c3)c2N)cc1 (as salt: HCl) [compound 65, 5-amino-1-(4-methylphenyl)-4-[3-(pyridin-3-yl)benzoyl]pyrazole] | 281.3 to 282.8
COc1cccc(-n2ncc(C(=O)c3cccc(-c4cccnc4)c3)c2N)c1 (as salt: HCl) [compound 66, 5-amino-1-(3-methoxyphenyl)-4-[3-(pyridin-3-yl)benzoyl]pyrazole] | 256.1 to 256.5
Nc1c(C(=O)c2cccc(-c3cccnc3)c2)cnn1-c1ccc(S(N)(=O)=O)cc1 (as salt: HCl) [compound 68, 5-amino-1-(4-sulfamoylphenyl)-4-[3-(pyridin-3-yl)benzoyl]pyrazole] | > 300
CC(=O)OCC(COc1cccc(C(=O)c2cnn(-c3ccc(F)cc3)c2N)c1)OC(C)=O (stereo in doubt) [compound 165, 5-amino-1-(4-fluorophenyl)-4-[3-{2(S),3-(diacetoxy)propoxy}benzoyl]pyrazole] | 91.4 to 92.7
COC(=O)OCC(COc1cccc(C(=O)c2cnn(-c3ccc(F)cc3)c2N)c1)OC(=O)OC (stereo in doubt) [compound 168, 5-amino-1-(4-fluorophenyl)-4-[3-{2(S),3-(dimethoxycarbonyloxy)propoxy}benzoyl]pyrazole] | 62 to 65
CC1(C)OCC(COc2cccc(C(=O)c3cnn(-c4ccc(F)cc4)c3N)c2)O1 (stereo in doubt) [compound 170, 5-amino-1-(4-fluorophenyl)-4-{3-[(2,2-dimethyl-1,3-dioxolan-4(S)-yl)methoxy]benzoyl}pyrazole] | 78.3 to 80
Nc1c(C(=O)c2cccc(OCC(=O)N3CCOCC3)c2)cnn1-c1ccc(F)cc1 [compound 35, 5-amino-1-(4-fluorophenyl)-4-[3-(morpholin-4-ylcarbonylmethyloxy)benzoyl]pyrazole] | 124.3 to 126.6
Nc1c(C(=O)c2cccc(OCc3ccccn3)c2)cnn1-c1ccc(F)cc1 [compound 82, 5-amino-1-(4-fluorophenyl)-4-[3-(pyridin-2-ylmethoxy)benzoyl]pyrazole] | 176.1 to 177.3
Nc1c(C(=O)c2cccc(CN3CCCCC3)c2)cnn1-c1ccc(F)cc1F [compound 86, 5-Amino-1-(2,4-difluorophenyl)-4-[3-(1-piperidinylmethyl)benzoyl]pyrazole] | 116.6 to 118.6
CC(C)(O)C#Cc1cccc(C(=O)c2cnn(-c3ccc(F)cc3)c2N)c1 [compound 87, 5-amino-1-(4-fluorophenyl)-4-[3-(3-hydroxy-3-methyl-but-1-ynyl)benzoyl]pyrazole] | 152.6 to 153.1
Nc1c(C(=O)c2cccc(C#Cc3cccnc3)c2)cnn1-c1ccc(F)cc1F [compound 88, 5-amino-1-(2,4-difluorophenyl)-4-[3-(3-pyridylethynyl)benzoyl]pyrazole] | 183.5 to 184
Nc1c(C(=O)c2cccc(CCc3cccnc3)c2)cnn1-c1ccc(F)cc1F [compound 91, 5-amino-1-(2,4-difluorophenyl)-4-[3-(3-pyridylethyl)benzoyl]pyrazole] | 153.4 to 153.7
Nc1c(C(=O)c2cccc(CCCN3CCS(=O)(=O)CC3)c2)cnn1-c1ccc(F)cc1F [compound 92, 5-amino-1-(2,4-difluorophenyl)-4-[3-{3-(S,S-dioxo-thiomorpholin-4-yl)propyl}benzoyl]pyrazole] | 123.8 to 125.9
Nc1c(C(=O)c2cccc(C#CC3(O)CCCC3)c2)cnn1-c1ccc(F)cc1F [compound 94, 5-amino-1-(2,4-difluorophenyl)-4-[3-{2-(1-hydroxycyclopentyl)ethynyl}benzoyl]pyrazole] | 176.8 to 177.1
Nc1c(C(=O)c2cccc(CCC3(O)CCCC3)c2)cnn1-c1ccc(F)cc1F [compound 95, 5-amino-1-(2,4-difluorophenyl)-4-[3-{2-(1-hydroxycyclopentyl)ethyl}benzoyl]pyrazole] | 120.3 to 121
Nc1c(C(=O)c2cccc(OCCN3CCOCC3)c2)cnn1-c1ccccc1F [compound 97, 5-amino-1-(2-fluorophenyl)-4-[3-(2-morpholin-4-ylethoxy)benzoyl]pyrazole] | 130.8 to 135.1
Nc1c(C(=O)c2cccc(OCCN3CCOCC3)c2)cnn1-c1c(Cl)cccc1Cl [compound 98, 5-amino-1-(2,6-dichlorophenyl)-4-[3-(2-morpholin-4-ylethoxy)benzoyl]pyrazole] | 144.2 to 145.1
Nc1c(C(=O)c2cccc(C(O)CO)c2)cnn1-c1ccc(F)cc1F (stereo not drawn) [compound 103, 5-amino-1-(2,4-difluorophenyl)-4-[3-(1,2-dihydroxyethyl)benzoyl]pyrazole] | 59 to 64
Cc1ccccc1-n1ncc(C(=O)c2cccc(C(O)CO)c2)c1N (stereo not drawn) [compound 109, 5-amino-1-(2-methylphenyl)-4-[3-(1,2-dihydroxyethyl)benzoyl]pyrazole] | 83 to 85.5
Nc1c(C(=O)c2cccc(OCC(=O)O)c2)cnn1-c1ccc(F)cc1 [compound 119] | 215.9 to 216.2
Nc1c(C(=O)c2cccc(OCCn3ncccc3=O)c2)cnn1-c1ccc(F)cc1 [compound 128] | 174.5 to 178
Nc1c(C(=O)c2cccc(CN3CCOCC3)c2)cnn1-c1ccc(F)cc1F [compound 131] | 127.3 to 128.5
Nc1c(C(=O)c2cccc(CN3CCC(O)CC3)c2)cnn1-c1ccc(F)cc1F [compound 133] | 141.5 to 145.5
Nc1c(C(=O)c2cccc(OC[C@@H]3COC(=O)O3)c2)cnn1-c1ccc(F)cc1 [compound 171, 5-amino-1-(4-fluorophenyl)-4-{3-[(1,3-dioxolan-2-on-4(R)-yl)methoxy]benzoyl}pyrazole] | 144.3 to 144.9
CCC1(CC)OC[C@H](COc2cccc(C(=O)c3cnn(-c4ccc(F)cc4)c3N)c2)O1 [compound 173, 5-amino-1-(4-fluorophenyl)-4-{3-[(2,2-diethyl-1,3-dioxolan-4(S)-yl)methoxy]benzoyl}pyrazole] | 74.1 to 75.7
CCC1(C)OC[C@H](COc2cccc(C(=O)c3cnn(-c4ccc(F)cc4)c3N)c2)O1 (stereo partly drawn) [compound 174, 5-amino-1-(4-fluorophenyl)-4-{3-[(2-methyl-2-ethyl-1,3-dioxolan-4(S)-yl)methoxy]benzoyl}pyrazole] | 81.1 to 83
